Test results taken from patent US10993923B2, “Method for ameliorating fibrosis using 1-[4-chloro-3-(trifluoromethyl)phenyl]-3-[3-(4-cyanophenoxy)phenyl]urea” (priority 2016, dated 2021).

How the values were obtained:
LX2 cells = assay: Apoptosis (Annexin V / propidium iodide flow cytometry), LX2 cells; type: cell-based, human; settings: LX2; FIG. 16D, 16E
Protocol: Rat immortal hepatic stellate cell line HSC-T6 and LX2 human hepatic stellate cell line were provided by Professor Scott Friedman of Mount Sinai Hospital in New York, USA. The primary mouse HSCs were obtained via the way: after intubating the hepatic portal vein of the mouse, the cells were perfused with […] and ethylene glycol bis-aminoethyl ether tetraacetic acid (EGTA) buffer in situ, and then collagenase was injected to digest the liver tissue, and then the primary mouse HSCs were isolated by Histodnz gradient. HSC-T6 cells were cultured in Waymouth medium; LX2 cells and primary mouse HSCs were cultured in Dulbecco's Modified Eagle Medium (DMEM) containing 10% fetal bovine serum (FBS), 100 μg/mL penicillin, 100 μg/mL streptomycin, and 2 mM L-glutamine HSC-T6 cells, LX2 cells and primary mouse HSCs were cultured in a humidified incubator containing 5% carbon dioxide at 37° C. After adding the FBS, the resting HSC is started. […] The experiment was carried out following the manufacturer's instructions, and each group was triple repetition. […] The proportion of apoptotic cells was mixed the early (Annexin V+/PI-) and the late (Annexin V+/PI+) apoptotic cells measured by BD FACS Verse flow cytometry (BD, USA). Plasmids encoding the human wild-type SHP-1 and SHP-1 mutant, in which the N-SH2 domain was […] was changed into an […]) were cloned into the pCMV6-entry vector with myc-tag. These mutants were confirmed through DNA sequencing. […] (Chicago, Ill., USA).

[1] = test system: TGF-β, PDGFR and STAT3 pathways in LX2 cells; assay: Western blot of signalling proteins in LX2 cells; type: cell-based, human; settings: FIG. 16D, 16E
Protocol: Rat immortal hepatic stellate cell line HSC-T6 and LX2 human hepatic stellate cell line were provided by Professor Scott Friedman of Mount Sinai Hospital in New York, USA. The primary mouse HSCs were obtained via the way: after intubating the hepatic portal vein of the mouse, the cells were perfused with […] and ethylene glycol bis-aminoethyl ether tetraacetic acid (EGTA) buffer in situ, and then collagenase was injected to digest the liver tissue, and then the primary mouse HSCs were isolated by Histodnz gradient. HSC-T6 cells were cultured in Waymouth medium; LX2 cells and primary mouse HSCs were cultured in Dulbecco's Modified Eagle Medium (DMEM) containing 10% fetal bovine serum (FBS), 100 μg/mL penicillin, 100 μg/mL streptomycin, and 2 mM L-glutamine HSC-T6 cells, LX2 cells and primary mouse HSCs were cultured in a humidified incubator containing 5% carbon dioxide at 37° C. After adding the FBS, the resting HSC is started. […] Whole-cell extracts were obtained via RIPA buffer (Millipore, USA) and protein concentrations were quantified via a BCA protein assay kit (Thermo Fisher Scientific, USA). 20 or 25 μg of protein was added to various percentages of SDS-sodium dodecyl sulfate-acrylamide gel and blotted onto a polyvinylidene fluoride (PVDF) membrane. […] Proteins were detected by Immobilon Western Chemiluminescent HRP substrate (Millipore, USA) or ECL detection system (UVP Corporation, USA). […] Plasmids encoding the human wild-type SHP-1 and SHP-1 mutant, in which the N-SH2 domain was […] was changed into an […]) were cloned into the pCMV6-entry vector with myc-tag. These mutants were confirmed through DNA sequencing. […] (Chicago, Ill., USA).

[2] = test system: CCl4-induced hepatic fibrosis in mice; assay: CCl4-induced hepatic fibrosis mice prevention model; type: in vivo, male C57BL/6J mice; settings: concurrently administered with CCl4 for 4 weeks; FIG. 11A-11E
From the text: (§1) In male C57BL/6J mice, liver fibrosis was induced by carbon tetrachloride (CCl4). The mice were given peritoneal injection of carbon tetrachloride for 4 or 8 weeks every two weeks.
(§2) The mice liver samples were stored in 10% formaldehyde, dehydrated with gradient alcohol, embedded in paraffin blocks, sectioned to a thickness of 3 μm, placed on glass slides, and stained with Picrosirius Red Stain kit (ScyTek, USA), following the manufacturer's instructions. The severity of liver fibrosis was graded according to the Ishak fibrosis score. Quantitative collagen-positive area (qCPA) was determined by densitometry via ImageJ software. Hepatic hydroxyproline concentrations were measured by the hydroxyproline assay kit (Biovision, USA), following the manufacturer's instructions Immunohistochemistry was performed by the Leica BOND-MAX automatic chromatograph (Leica Biosystems, Germany), following the manufacturer's instructions.

[3] = test system: CCl4-induced hepatic fibrosis in mice; assay: CCl4-induced hepatic fibrosis mice treatment model; type: in vivo, male C57BL/6J mice; settings: compound 5, 10, or 20 mg/kg or sorafenib 10 mg/kg, with CCl4 for 6 weeks after 2 weeks CCl4 induction; FIG. 12A
From the text: as §1, §2
Continuous variables are presented as mean (standard error), and categorical data are presented as number (percentage), as appropriate. Differences between subgroups were evaluated using the Student t test. Spearman's correlation was used for the association between SHP-1 and serum alanine aminotransferase (ALT). The mouse survival rate was estimated using the Kaplan-Meier method. The log-rank test was used to determine the statistical differences in survival of the different experimental groups. Statistical analysis was performed using STATA (version 13, Stata Corp, College Station, Tex., USA). All tests were two-sided, and P<0.05 was considered significant.

SHP-1 [4] = target: T1, SHP-1 (Rattus norvegicus, UniProt P81718); assay: SHP-1 phosphatase activity, HSC-T6 cells; type: cell-based; settings: sorafenib 5 μM, compound 2.5 or 5 μM, FIG. 16C
T1 construct: endogenous in cells; host or cells: HSC-T6 cells

SHP-1 [5] = target: T2, SHP-1 (Homo sapiens, UniProt P29350); assay: SHP-1 phosphatase activity, LX2 cells; type: cell-based; settings: LX2; sorafenib 5 μM, compound 2.5 or 5 μM; FIG. 16C
T2 construct: LX2 cell protein extract were reacted with anti-SHP-1 antibody in immunoprecipitation buffer overnight; endogenous in cells; host or cells: LX2 cells
Protocol: After drug treatment, mouse fibroblasts (NIH3T3 cell line), human lung epithelial cells (A549 cell line) or LX2 cell protein extract were reacted with anti-SHP-1 antibody in immunoprecipitation buffer overnight. Protein A/G Sepharose Fast Flow Beads (GE) were added to each sample, followed by a rotation reaction at 4° C. for 3 hours. The 96EnzChek® tyrosine phosphatase assay kit (R-22067) was used for SHP-1 activity assay (Invitrogen, USA).
Plasmids encoding the human wild-type SHP-1 and SHP-1 mutant, in which the N—SH2 domain was truncated (dN1) or one aspartic acid at site 61 was changed into an alanine residue (D61A) were cloned into the pCMV6-entry vector with myc-tag. These mutants were confirmed through DNA sequencing. Smart-pool siRNA, including the control (D-001810-10), and SHP-1 (PTPN6, L-009778-00-0005) were obtained from Dharmacon Inc. (Chicago, Ill., USA). For transient expression, SHP-1 plasmids or siRNA (final concentration, 100 nM) with the Lipofectamine 2000 transfection reagent were pretransfected into the LX2 cells for 24 h, following the manufacturer's instructions.

T2 sequence (P29350 whole entry): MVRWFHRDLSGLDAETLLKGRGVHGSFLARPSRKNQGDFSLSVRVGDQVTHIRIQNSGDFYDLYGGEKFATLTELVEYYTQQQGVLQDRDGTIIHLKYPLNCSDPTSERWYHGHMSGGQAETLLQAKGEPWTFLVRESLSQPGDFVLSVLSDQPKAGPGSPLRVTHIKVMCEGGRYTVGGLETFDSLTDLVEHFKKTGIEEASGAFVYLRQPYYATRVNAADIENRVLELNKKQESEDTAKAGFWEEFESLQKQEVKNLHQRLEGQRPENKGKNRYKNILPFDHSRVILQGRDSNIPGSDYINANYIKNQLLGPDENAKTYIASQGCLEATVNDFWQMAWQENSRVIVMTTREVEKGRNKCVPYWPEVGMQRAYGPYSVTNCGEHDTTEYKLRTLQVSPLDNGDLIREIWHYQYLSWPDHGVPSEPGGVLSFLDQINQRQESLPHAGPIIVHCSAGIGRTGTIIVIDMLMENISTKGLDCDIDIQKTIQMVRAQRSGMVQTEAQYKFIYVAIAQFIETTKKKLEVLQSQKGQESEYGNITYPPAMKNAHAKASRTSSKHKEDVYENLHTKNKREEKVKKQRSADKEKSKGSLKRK
T1 sequence (P81718 whole entry): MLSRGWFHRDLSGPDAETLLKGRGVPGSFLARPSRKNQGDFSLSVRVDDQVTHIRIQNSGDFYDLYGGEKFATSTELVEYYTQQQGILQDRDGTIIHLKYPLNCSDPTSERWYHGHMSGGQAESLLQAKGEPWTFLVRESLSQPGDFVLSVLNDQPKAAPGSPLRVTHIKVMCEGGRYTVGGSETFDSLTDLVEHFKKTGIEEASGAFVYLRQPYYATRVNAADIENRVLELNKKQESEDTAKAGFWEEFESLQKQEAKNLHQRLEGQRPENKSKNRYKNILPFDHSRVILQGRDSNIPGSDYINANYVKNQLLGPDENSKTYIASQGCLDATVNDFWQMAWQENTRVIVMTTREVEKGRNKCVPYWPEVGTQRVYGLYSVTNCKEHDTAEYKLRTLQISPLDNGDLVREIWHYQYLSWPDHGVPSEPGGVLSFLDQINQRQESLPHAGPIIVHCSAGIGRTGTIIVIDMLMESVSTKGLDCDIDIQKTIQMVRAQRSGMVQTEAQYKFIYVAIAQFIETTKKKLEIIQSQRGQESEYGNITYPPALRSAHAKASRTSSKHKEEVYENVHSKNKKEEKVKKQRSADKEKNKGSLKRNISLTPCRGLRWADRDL

Compound: O=C(O)COc1ccc(C(=O)CBr)cc1 [PTP inhibitor III, reference compound]
- compound-induced apoptosis of LX2 cells in the presence of a phosphatase inhibitor (LX2 cells): rescued
- p-STAT3 in compound-treated LX2 cells in the presence of a phosphatase inhibitor [1]: upregulated

Compound: CNC(=O)c1cc(Oc2ccc(NC(=O)Nc3ccc(Cl)c(C(F)(F)F)c3)cc2)ccn1 [sorafenib, reference compound]
- hepatic fibrosis (Picrosirius Red staining, qCPA, Ishak fibrosis score, α-SMA expression, hydroxyproline concentration) [2]: significant fibrosis regression
- hepatic fibrosis (picrosirius red staining) [3]: significantly improved hepatic fibrosis
- SHP-1 activity (SHP-1 [4]): increases the activity of SHP-1
- SHP-1 activity (SHP-1 [5]): increases the activity of SHP-1

Compound: Sodium vanadate [reference compound]
- compound-induced apoptosis of LX2 cells in the presence of a phosphatase inhibitor (LX2 cells): rescued
- p-STAT3 in compound-treated LX2 cells in the presence of a phosphatase inhibitor [1]: upregulation
